According to US5962525A, “6,7-disubstituted-2-aminotetralines active as immunomodulators and pharmaceutical compositions containing same” (Sigma-Tau, priority 1990, dated 1999):
Read-outs that look alike come from different tables or passages of the source.

Columns and labels:
[1] = Tolerability after oral or intravenous administration; design: species or system mouse (Swiss albino); settings: mouse, in vivo, 7 days observation, read-out: Tolerability, dose
Experimental: The test was conducted in male Swiss albino mice weighing 22-24 g.
A group of animals (4 animals/dose) which had been kept fasting for 18 hours, were orally administered the compounds ST 557, ST 563, ST 564 and ST 570 dissolved in twice distilled water.
A further group of animals, which had free access to food and water, were administered intravenously the same compounds dissolved in saline it pH 7. All the animals were kept under observation for 7 days.

LD50, intravenous = settings: mouse, in vivo, 0.9% saline
Experimental: LD50 was determined according to Carrol S. Weil's method, Biometrics, pages 249-263 (1952) in male Swiss albino mice weighing 22-24 g.
The various compounds dissolved in 0.9% saline were administered intravenously.

[2] = test system: murine peritoneal exudate cells (PEC); assay: "In vitro-ex vivo" effect on the phagocytic activity of exudate peritoneal cells (SRBC phagocytosis); design: species or system mouse (B6 D2 F1); settings: 25 mg/kg/day i.p.
Experimental: Assessment of the "in vitro-ex vivo" effect of ST 557, ST 563, ST 564, ST 570, ST 608 and ST 626 on the phagocytic activity of exudate peritoneal cells (PEC)
Male B6 D2 F1 mice aged 6-8 weeks (5 animals each group) were used.
The compounds were administered i.p. (25 mg/kg/day), ST 557, ST 563 and ST 626 were also administered per os (100 mg/kg/day) from day -5 to day -1 (PEC harvesting at day 0).
The experimental procedure was substantially the same as that described by Williams et al., in "Methods in Immunology and Immunochemistry", Acad. Press. 5: 261 (1976).
In particular, 24 hours following the end of the treatment, PECs from each experimental group were harvested, pooled and their concentration was adjusted to 4×10^6 cells/ml.
To volumes of 250 μl of each PEC sample were added equal volumes of 0.4% SRBC (Sheep Red Blood Cells) opsonized with hyperimmune serum.
The samples (duplicate) were incubated for 1 hour and then subjected to hypotonic shock in order to remove the non-phagocytized SRBC. After restoring the osmolarity, the phagocytes were cytocentrifuged, stained with a differential dye and observed under the microscope.
The results were expressed as:
(a) percentage of cells that have phagocytized with respect to 100 phagocytizing cells;
(b) total number of phagocytized SRBC;
(c) average number of SRBC in each phagocyte.

splenocytes = assay: "In vitro-ex vivo" effect on the mytogen (PHA, ConA, LPS)-induced splenocyte proliferation in mice immunodepressed with cyclophosphamide; design: species or system mouse (B6 D2 F1); settings: for S.I. (stimulation index): with respect to the immunodepressed controls; for AUC (area under curve): immunodepressed
Experimental: Assessment of the "in vitro-ex vivo" effect of ST 557, ST 563 ST 564 on the mytogen (PHA, ConA, LPS)-Induced splenocyte proliferation in mice Immunodepressed with cyclotohosphamide
Male B6 D2 F1 mice aged 7-9 weeks (5 mice per group) were used.
The immunosuppressor (cyclophosphamide) was administered i.p. at the dose of 100 mg/kg at day -5. The compounds were administered i.p. (25 mg/kg/day) and per os (100 mg/kg/day) from day -5 to day -1 (spleen excision at day 0).
Splenocyte proliferation was induced by three different mytogens: PHA and ConA active on T-lymphocytes, and LPS active on B-lymphocytes. Each mytogen was tested at three different concentrations (suboptimal, optimal and superoptimal) corresponding to 0.5, 4 and 6 mcg/ml/well for PHA; 0.5, 4 and 8 mcg/ml/well for ConA and 0.5, 150 and 500 mcg/ml/well for LPS.
The experimental procedure is identical to that described in test 4.
The results are expressed as both AUC (see test 4) and S.I. In order to assess the efficacy of the immunosuppressor and the activity of the tested compounds, S.I. has been determined both for the immunodepressed controls (with respect to the normal controls) and for the immunodepressed treated animals (with respect to the immunodepressed controls), respectively. [formula]

COc1ccc(OCC(O)CNC2CCc3cc(OC)c(OC)cc3C2)cc1 (stereo not shown) [ST 564, 2-[(N-2-hydroxy-3-(4-methoxyphenoxy)propyl)amino]-6,7-dimethoxytetraline]
MTD at 168 h ([1]; iv): > 20 mg/kg
MTD at 168 h ([1]; po, os, fasting 18 hours): > 50 mg/kg
LD50 (LD50, intravenous): 44.5 mg/kg
Fagocytizing cells [2]: 40.0%
Total n° SRBC phagocytized [2]: 126.6
SRBC per phagocytizing cell ([2]; average number of SRBC in each phagocyte): 3.2
S.I. (stimulation index) (splenocytes; ConA, 25 mg/kg/day i.p.): 1.01
S.I. (stimulation index) (splenocytes; ConA, 100 mg/kg/day os): 0.78
AUC (area under curve) (splenocytes; ConA, 25 mg/kg/day i.p.): 514 ± 10 ×10^-3
AUC (area under curve) (splenocytes; ConA, 100 mg/kg/day os): 577 ± 41 ×10^-3
S.I. (stimulation index) (splenocytes; LPS, 25 mg/kg/day i.p.): 2.74
S.I. (stimulation index) (splenocytes; LPS, 100 mg/kg/day os): 0.65
AUC (area under curve) (splenocytes; LPS, 25 mg/kg/day i.p.): 2533 ± 314 ×10^-3
AUC (area under curve) (splenocytes; LPS, 100 mg/kg/day os): 3023 ± 257 ×10^-3
S.I. (stimulation index) (splenocytes; PHA, 25 mg/kg/day i.p.): 2.05
AUC (area under curve) (splenocytes; PHA, 25 mg/kg/day i.p.): 205 ± 18 ×10^-3
